Data reported in US8975232B2, “Macrocyclic kinase inhibitors and uses thereof” (President and Fellows of Harvard College, priority 2010, dated 2015).

Key:
Assay type in all cases: biochemical
HCK = HCK (Homo sapiens, UniProt P08631); experiment: Continuous spectrophotometric kinase activity assay; parameters: Kinase domain constructs of human c-Abl (residues 229-512), chicken c-Src (residues 251-533 and residues 83-533), murine Lck (residues 227-509), and human Hck (residues 166-445); made in house
HCK, sequence (P08631 262-515 limits assumed): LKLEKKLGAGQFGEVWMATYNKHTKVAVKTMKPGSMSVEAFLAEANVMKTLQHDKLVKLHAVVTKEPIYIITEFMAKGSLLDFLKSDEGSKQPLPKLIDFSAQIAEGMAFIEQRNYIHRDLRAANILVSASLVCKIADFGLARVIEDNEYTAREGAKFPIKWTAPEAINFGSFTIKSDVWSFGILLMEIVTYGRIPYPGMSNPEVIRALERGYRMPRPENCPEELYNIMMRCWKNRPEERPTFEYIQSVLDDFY

VEGFR2 (KDR) = VEGFR2 (KDR) (Homo sapiens, UniProt P35968); experiment: Z'-LYTE kinase assay (Invitrogen SelectScreen); settings: KDR (VEGFR2); 5 μM
VEGFR2 (KDR), sequence (P35968 20-1356): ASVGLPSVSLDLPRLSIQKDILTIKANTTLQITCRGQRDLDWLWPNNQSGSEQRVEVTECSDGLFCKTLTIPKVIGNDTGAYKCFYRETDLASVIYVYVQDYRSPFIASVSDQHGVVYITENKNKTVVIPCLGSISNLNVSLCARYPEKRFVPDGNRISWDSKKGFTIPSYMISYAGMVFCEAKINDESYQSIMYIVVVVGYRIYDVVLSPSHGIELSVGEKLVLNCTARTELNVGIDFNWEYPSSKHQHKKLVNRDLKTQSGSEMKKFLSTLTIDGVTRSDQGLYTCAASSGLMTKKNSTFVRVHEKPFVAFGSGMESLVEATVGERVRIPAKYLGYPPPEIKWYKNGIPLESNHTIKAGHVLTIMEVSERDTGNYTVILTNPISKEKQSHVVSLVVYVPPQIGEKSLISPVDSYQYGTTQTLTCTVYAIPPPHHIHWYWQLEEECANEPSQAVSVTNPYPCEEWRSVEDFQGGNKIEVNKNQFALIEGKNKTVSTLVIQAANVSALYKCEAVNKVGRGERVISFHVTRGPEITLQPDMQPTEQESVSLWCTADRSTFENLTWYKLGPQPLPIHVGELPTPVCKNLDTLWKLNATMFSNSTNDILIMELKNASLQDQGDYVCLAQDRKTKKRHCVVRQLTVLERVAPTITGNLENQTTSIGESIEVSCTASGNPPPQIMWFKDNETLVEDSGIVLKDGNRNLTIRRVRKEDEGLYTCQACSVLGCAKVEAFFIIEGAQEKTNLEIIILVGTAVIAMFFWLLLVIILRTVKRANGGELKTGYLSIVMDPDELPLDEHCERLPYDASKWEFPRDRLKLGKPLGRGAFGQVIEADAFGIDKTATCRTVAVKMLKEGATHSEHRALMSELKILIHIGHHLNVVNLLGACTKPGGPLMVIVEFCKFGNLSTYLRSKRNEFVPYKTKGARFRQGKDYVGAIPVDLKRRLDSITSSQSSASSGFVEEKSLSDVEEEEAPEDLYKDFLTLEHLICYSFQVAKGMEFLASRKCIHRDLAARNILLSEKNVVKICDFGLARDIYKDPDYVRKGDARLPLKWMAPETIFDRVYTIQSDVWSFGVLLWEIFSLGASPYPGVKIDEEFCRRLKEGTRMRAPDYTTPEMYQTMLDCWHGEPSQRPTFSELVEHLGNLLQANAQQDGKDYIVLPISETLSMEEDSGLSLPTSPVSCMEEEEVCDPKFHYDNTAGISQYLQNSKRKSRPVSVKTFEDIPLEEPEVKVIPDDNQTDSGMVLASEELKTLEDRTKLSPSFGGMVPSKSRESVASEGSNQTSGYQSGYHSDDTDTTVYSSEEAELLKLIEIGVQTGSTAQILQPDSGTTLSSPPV
From the text: (§1) Macrocycles A10-B1-C11-D5 and A10-B8-C11-D5 were enriched 2- to 6-fold upon selection for binding Akt3, MAPKAPK2, Pim1, and VEGFR2 (FIG. 6). These two macrocycles are structurally similar, sharing nitrophenylalanine (A10) and cyclohexylstatine (C11) building blocks as well as the same lysine scaffold (D5), and differ only at the B building block with either furylalanine (B1) or cyclohexylalanine (B8) (FIG. 6). For assay purposes, the macrocycles were synthesized with C-terminal PEG-diamine linkers to aid solubility, and then tested for the ability to inhibit Akt3, MAPKAPK2, Pim1 and VEGFR2.
(§2) Src IC50 determinations and single-point inhibition measurements were performed using Invitrogen's Z′-LYTE Tyr 02 assay kit according to the manufacturer's protocols. All kinase assays were performed at ATP concentrations near KM,ATP values, except where noted otherwise. Active human Src kinase was obtained from Millipore. For kinome profiling and IC50 determinations against non-Src kinases, compounds were submitted to Invitrogen's SelectScreen Kinase Profiling Service.

MAPKAPK2 (MK2) = MAPKAPK2 (MK2) (Homo sapiens, UniProt P49137); experiment: Z'-LYTE kinase assay (Invitrogen SelectScreen); settings: MAPKAPK2; 5 μM
MAPKAPK2 (MK2), sequence (P49137 whole entry): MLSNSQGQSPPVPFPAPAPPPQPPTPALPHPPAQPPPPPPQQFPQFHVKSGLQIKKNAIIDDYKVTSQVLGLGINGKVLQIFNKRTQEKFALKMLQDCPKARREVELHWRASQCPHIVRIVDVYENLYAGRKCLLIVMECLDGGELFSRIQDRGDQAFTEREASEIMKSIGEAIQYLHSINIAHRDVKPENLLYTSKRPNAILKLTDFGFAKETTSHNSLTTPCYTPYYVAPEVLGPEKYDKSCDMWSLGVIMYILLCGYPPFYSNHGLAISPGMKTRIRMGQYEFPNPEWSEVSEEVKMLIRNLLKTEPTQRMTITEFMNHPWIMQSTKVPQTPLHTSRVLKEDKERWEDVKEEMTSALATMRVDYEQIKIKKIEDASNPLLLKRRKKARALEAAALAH
From the text: as §1, §2

Pim1 = Pim1 (Homo sapiens, UniProt P11309); experiment: Z'-LYTE kinase assay (Invitrogen SelectScreen); settings: PIM1; 5 μM
Pim1, sequence (P11309 whole entry): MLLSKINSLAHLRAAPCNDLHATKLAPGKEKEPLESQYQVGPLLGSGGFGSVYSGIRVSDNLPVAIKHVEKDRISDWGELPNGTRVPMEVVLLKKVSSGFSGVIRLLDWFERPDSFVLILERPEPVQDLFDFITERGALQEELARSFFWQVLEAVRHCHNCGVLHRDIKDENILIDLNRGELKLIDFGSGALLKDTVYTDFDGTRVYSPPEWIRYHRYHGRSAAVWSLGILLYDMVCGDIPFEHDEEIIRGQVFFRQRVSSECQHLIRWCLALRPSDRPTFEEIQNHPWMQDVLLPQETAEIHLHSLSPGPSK
From the text: as §1, §2

Akt3 = Akt3 (Homo sapiens, UniProt Q9Y243); experiment: Z'-LYTE kinase assay (Invitrogen SelectScreen); settings: AKT3 (PKB gamma); 5 μM
Akt3, sequence (Q9Y243 whole entry): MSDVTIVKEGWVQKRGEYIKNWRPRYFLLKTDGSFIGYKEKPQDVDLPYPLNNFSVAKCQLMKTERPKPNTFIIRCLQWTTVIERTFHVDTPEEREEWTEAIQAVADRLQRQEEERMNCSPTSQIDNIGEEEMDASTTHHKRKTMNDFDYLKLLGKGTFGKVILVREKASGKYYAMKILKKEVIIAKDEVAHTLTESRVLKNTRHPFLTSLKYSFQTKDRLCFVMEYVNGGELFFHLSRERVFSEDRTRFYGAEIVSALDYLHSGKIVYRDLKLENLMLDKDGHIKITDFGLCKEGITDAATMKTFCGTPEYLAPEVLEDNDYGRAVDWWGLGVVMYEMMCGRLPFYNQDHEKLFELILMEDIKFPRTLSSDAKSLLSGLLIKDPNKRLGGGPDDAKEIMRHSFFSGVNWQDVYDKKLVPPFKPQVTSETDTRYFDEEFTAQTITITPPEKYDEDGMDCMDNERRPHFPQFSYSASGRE
From the text: as §1, §2

NC(=O)[C@@H]1CCCNC(=O)[C@H](Cc2ccc([N+](=O)[O-])cc2)NC(=O)[C@H](Cc2ccco2)NC(=O)[C@H](CC2CC2)NC(=O)/C=C/C(=O)N1 [trans-A10-B1-C5-D6]
IC50 (HCK; 5 μM ATP, 100 μM Src optimal peptide): > 100 µM | IC50 (HCK; 5 μM ATP, 300 μM Src optimal peptide): > 100 µM | IC50 (HCK; 250 μM ATP, 300 μM Src optimal peptide): > 100 µM | % inhibition (VEGFR2 (KDR)): 7% | % inhibition (MAPKAPK2 (MK2)): −3% | % inhibition (Pim1): −3% | % inhibition (Akt3): 11%
